The supplement of paper PMC8960247
Where a name gives a salt, the structure may show the parent alone. ± gives the standard error.

Tests used:
[1] = test system: 621-102 (TSC2-deficient); assay: relative viability vs DMSO; higher = less cytotoxic; conditions: serum: 10% FBS, 72 h
[2] = test system: 621-103 (TSC2-rescued); assay: as above; conditions: serum: 10% FBS, 72 h
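Note: immortalized renal angiomyolipoma cells stably carrying empty vector or TSC2, dosed in 384-well plates in DMEM, viability normalized to vehicle-treated wells within each plate.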

| SMILES | relative viability ([1]; 0.0001 µM) [%] | relative viability ([1]; 0.001 µM) [%] | relative viability ([1]; 0.01 µM) [%] | relative viability ([1]; 0.1 µM) [%] | relative viability ([1]; 1 µM) [%] | relative viability ([1]; 10 µM) [%] | relative viability ([2]; 0.0001 µM) [%] | relative viability ([2]; 0.001 µM) [%] | relative viability ([2]; 0.01 µM) [%] | relative viability ([2]; 0.1 µM) [%] | relative viability ([2]; 1 µM) [%] | relative viability ([2]; 10 µM) [%] |
| --- | --- | --- | --- | --- | --- | --- | --- | --- | --- | --- | --- | --- |
| CNC(=O)c1ccc(C)c(-n2c(C)cc(OCc3ccc(F)cc3F)c(Br)c2=O)c1 | 105 ± 5.5 | 101 ± 2.1 | 109.06 ± 0.1 | 109 ± 1.6 | 97.8 ± 1.9 | 103 ± 0.24 | 102 ± 4.2 | 102 ± 2.3 | 99 ± 1 | 97.6 ± 0.99 | 99.4 ± 1.4 | 95 ± 2.2 |
| COc1ccccc1N1CCN(CC(O)COc2cccc3ccccc23)CC1 (stereo not drawn) [Naftopidil Dihydrochloride] | 103 ± 5.6 | 109 ± 1.6 | 108.5 ± 0.88 | 106 ± 1.2 | 105.81 ± 0.046 | 110 ± 5 | 110 ± 0.54 | 97.8 ± 11 | 106.7 ± 0.54 | 106 ± 3.4 | 104 ± 1.7 | 108 ± 4.8 |
| COC(=O)C1=C(C)NC(C)=C(C(=O)OCCN2CCN(C(c3ccccc3)c3ccccc3)CC2)C1c1cccc([N+](=O)[O-])c1 (stereo not drawn) [Manidipine HCl (CV-4093)] | 110.7 ± 1 | 110.4 ± 0.56 | 104.3 ± 0.49 | 109 ± 2 | 107 ± 4 | 94.55 ± 0.56 | 90.9 ± 2 | 90 ± 1.3 | 98 ± 1.7 | 100.85 ± 0.1 | 89.9 ± 1.2 | 74.2 ± 1.2 |
| CCC(C)n1ncn(-c2ccc(N3CCN(c4ccc(OCC5COC(Cn6cncn6)(c6ccc(Cl)cc6Cl)O5)cc4)CC3)cc2)c1=O (stereo not drawn) [Itraconazole (Sporanox)] | 108 ± 2.3 | 115 ± 3.1 | 102 ± 1.8 | 112 ± 3.4 | 60 ± 7.2 | 7.53 ± 0.32 | 98.8 ± 5.2 | 86.8 ± 1.1 | 95.59 ± 0.8 | 97.5 ± 6.4 | 70.71 ± 0.48 | 15.44 ± 0.12 |
| N[C@@H](CC(=O)N1CCn2c(nnc2C(F)(F)F)C1)Cc1cc(F)c(F)cc1F [Sitagliptin phosphate] | 98.7 ± 0.22 | 104.4 ± 0.16 | 103 ± 2.5 | 94 ± 4.4 | 96.2 ± 1.3 | 91.46 ± 0.51 | 97.02 ± 0.71 | 97.6 ± 1.3 | 98.68 ± 0.34 | 100 ± 2 | 98.8 ± 2.4 | 101 ± 0.53 |
| COc1ccccc1N1CCN(CC(O)COc2cccc3ccccc23)CC1 (stereo not drawn) [Naftopidil] | 106 ± 5.7 | 99.4 ± 2.5 | 101.3 ± 0.6 | 106 ± 5 | 104.5 ± 1 | 97.38 ± 0.86 | 114 ± 4.2 | 111.6 ± 0.22 | 112 ± 1.2 | 108 ± 1.9 | 102.2 ± 0.57 | 107 ± 2.7 |
| CCNC(=O)c1cc2c(-c3cc(OCCN4CCCC4)c(Cl)cc3Cl)nc(N)nc2s1 [NVP-BEP800] | 97.39 ± 0.18 | 102 ± 6.3 | 107 ± 5.5 | 102 ± 1.2 | 56.1 ± 4 | 19.3 ± 1.1 | 101 ± 2.1 | 99.72 ± 0.67 | 99.48 ± 0.53 | 107 ± 2 | 43.99 ± 0.26 | 4.6 ± 0.3 |
| COc1cc2nccc(Oc3ccc(NC(=O)Nc4cc(C)on4)c(Cl)c3)c2cc1OC [AV-951(Tivozanib)] | 102 ± 2 | 96.6 ± 3.2 | 110 ± 5.9 | 111 ± 2 | 107 ± 2.7 | 77.33 ± 0.38 | 101.2 ± 0.14 | 104 ± 1.3 | 102.2 ± 0.42 | 99.26 ± 0.52 | 102 ± 2.4 | 48.2 ± 1.3 |
| CO[C@H]1C[C@@H]2CC[C@@H](C)[C@@](O)(O2)C(=O)C(=O)N2CCCC[C@H]2C(=O)O[C@H]([C@H](C)C[C@@H]2CC[C@@H](O)[C@H](OC)C2)CC(=O)[C@H](C)/C=C(\C)[C@@H](O)[C@@H](OC)C(=O)[C@H](C)C[C@H](C)/C=C/C=C/C=C/1C [Rapamycin (Sirolimus)] | 37 ± 2.8 | 43.2 ± 5 | 38.8 ± 3.9 | 41.6 ± 2.9 | 44.6 ± 5.5 | 44.8 ± 2 | 80.829 ± 0.071 | 63.1 ± 2.6 | 70 ± 2.1 | 78.1 ± 1.8 | 71.36 ± 0.67 | 68.1 ± 2.8 |
| C[C@]12CC[C@@H]3c4ccc(O)cc4C[C@@H](CCCCCCCCC[S+]([O-])CCCC(F)(F)C(F)(F)F)[C@H]3[C@@H]1CC[C@@H]2O (stereo partly drawn) [Fulvestrant] | 119.5 ± 0.33 | 117.7 ± 1 | 115 ± 2.2 | 114.7 ± 0.26 | 120 ± 3.1 | 113 ± 3.3 | 104 ± 1.3 | 101.5 ± 0.32 | 100 ± 1.9 | 102.2 ± 0.13 | 103 ± 1.7 | 104 ± 1.2 |
| CCOC(=O)[C@H](CCc1ccccc1)N[C@H]1CCc2ccccc2N(CC(=O)O)C1=O [Benazepril HCl] | 68 ± 2.9 | 82 ± 2.6 | 83 ± 5.2 | 81.1 ± 7.4 | 74.6 ± 9.9 | 69.8 ± 4.9 | 82.5 ± 11 | 89.7 ± 11 | 89.6 ± 6.1 | 98.8 ± 6.3 | 95.2 ± 4.9 | 89.9 ± 6.7 |
| Cc1[nH]c(/C=C2\C(=O)Nc3ccccc32)c(C)c1CCC(=O)O [TSU-68] | 94 ± 1.4 | 106 ± 3.3 | 119 ± 3.6 | 110 ± 2.1 | 91.7 ± 3.8 | 95.8 ± 2.4 | 101 ± 1.9 | 103 ± 1.2 | 101 ± 2.4 | 102 ± 1.7 | 102 ± 1.9 | 95.7 ± 1.1 |
| COc1cc2nc(N3CCN(C(=O)C4COc5ccccc5O4)CC3)nc(N)c2cc1OC (stereo not drawn) [Doxazosin mesylate] | 101 ± 0.75 | 99.06 ± 0.17 | 102.2 ± 0.51 | 100 ± 2.2 | 99.87 ± 0.89 | 95.9 ± 2.9 | 98.4 ± 1.8 | 95.8 ± 1.5 | 108 ± 2.6 | 101 ± 3.2 | 100.5 ± 0.52 | 88.314 ± 0.032 |
| CCCCC(=O)N(Cc1ccc(-c2ccccc2-c2nnn[nH]2)cc1)[C@H](C(=O)O)C(C)C [Valsartan] | 85.7 ± 5 | 113 ± 4.4 | 117.3 ± 1 | 117 ± 5.9 | 107 ± 1.1 | 104 ± 1.3 | 101 ± 3.4 | 118.1 ± 0.48 | 115 ± 1.9 | 114 ± 6.2 | 110.2 ± 0.73 | 115 ± 2.4 |
